According to ChEMBL document CHEMBL5046267, “Discovery of N-Trisubstituted Pyrimidine Derivatives as Type I RET and RET Gatekeeper Mutant Inhibitors with a Novel Kinase Binding Pose” (J Med Chem, 2022):
The source made the active and inactive calls. The calls are words filed in the database; no cut-off is given here.

Assays:
[1] = system: HEK293T; experiment: Inhibition of autophosphorylation of NCOA4-RET V804M mutant (unknown origin) transfected HEK293T cells assessed as inhibition of autophosphorylation of RET at 100 to 2500 nM measured after 2 hrs by Western blotting analysis; type: cell-based; conditions: Homo sapiens, dose 100-2500 nM
[2] = system: HEK293T; experiment: Inhibition of autophosphorylation of human NCOA4-RET G810R mutant transfected HEK293T cells assessed as inhibition of autophosphorylation of RET at 100 to 2500 nM measured after 2 hrs by Western blotting analysis; type: cell-based; conditions: dose 100-2500 nM

## CCN1CCN(c2cc(Nc3cc(C)n[nH]3)nc(Nc3ccc(CC(=O)NCc4cccc(F)c4)cc3)n2)CC1
[1]
  inhibition: Active
[2]
  inhibition: inactive

## Cc1cc(Nc2cc(N3CCN(C)CC3)nc(Nc3ccc(CC(=O)Nc4cccc(F)c4)cc3)n2)[nH]n1
[1]
  inhibition: Active
[2]
  inhibition: inactive

## Cc1cc(Nc2cc(N3CCN(C)CC3)nc(Nc3ccc(CC(=O)Nc4ccc(F)cc4)cc3)n2)[nH]n1
[1]
  inhibition: Active
[2]
  inhibition: inactive

## Cc1cc(Nc2cc(N3CCN(C)CC3)nc(Nc3ccc(CC(=O)Nc4ccc(C(C)C)cc4)cc3)n2)[nH]n1
[1]
  inhibition: Active
[2]
  inhibition: inactive
